# Activity calls are given as the source filed them.
# What was measured:
# Mus musculus [1] = test: Muscle relaxant activity in po dosed mouse assessed as blockade of pentylenetetrazol-induced tonic extensor seizure; format: functional
# Mus musculus [2] = test: Anticonvulsant activity in po dosed mouse assessed as blockade of supramaximal electroshock-induced […] seizure; format: functional
# Mus musculus [3] = test: Muscle relaxant activity in po dosed mouse assessed as increase in strychnine-induced persistant convulsive threshold; format: functional
# Rattus norvegicus = test: Antianxiety activity in ip dosed rat assessed as effect on increase in punished responses administered qd for 5 days measured every day for 5 days; format: functional
# Mus musculus [4] = test: Sedative-hypnotic activity in po dosed mouse assessed as increase in pentylenetetrazol-induced persistent-convulsive threshold; format: functional, organism-based
# Mus musculus [5] = test: Hypnotic activity in po dosed mouse assessed as increase in pentylenetetrazol-induced persistent-convulsive threshold; format: functional, organism-based
Compound,Activity (Mus musculus [1]),Activity (Mus musculus [2]),Activity (Mus musculus [3]),Activity (Rattus norvegicus),Activity (Mus musculus [4]),Activity (Mus musculus [5])
CN1CC(c2ccccc2)C/C1=N\C(=O)Nc1ccccc1 (stereo unspecified),inactive,inactive,inactive,inactive,inactive,inactive
CN1CCC/C1=N\C(=O)Nc1c(Cl)cc(Cl)cc1Cl,Active,,Active,,,
CSc1ccc(NC(=O)/N=C2\CCCN2C)cc1,inactive,inactive,inactive,inactive,,
O=C(/N=C1\CCCCCN1)Nc1ccccc1,inactive,inactive,inactive,inactive,inactive,inactive
CCCCCCCCCCCCCCCCCCNC(=O)/N=C1\CCCN1,,,,inactive,,
Cc1cc(N(C)C)cc(C)c1NC(=O)/N=C1\CCCN1C,Active,,Active,,,
CN1CC(C)(C)C/C1=N\C(=O)Nc1c(Cl)cccc1Cl,inactive,inactive,inactive,inactive,inactive,inactive
Cc1ccc(NC(=O)/N=C2\CCCN2C)cc1,inactive,inactive,inactive,inactive,,
CN1CCC/C1=N\C(=S)Nc1ccc([N+](=O)[O-])cc1,inactive,inactive,inactive,inactive,inactive,inactive
Cc1ccccc1NC(=O)/N=C1\CCCN1C,Active,Active,Active,Active,Active,Active
Cc1cccc(C)c1NC(=O)/N=C1\CCC(C)N1C (stereo unspecified),inactive,inactive,inactive,inactive,inactive,inactive
CN1CCC/C1=N\C(=S)Nc1ccccc1,inactive,inactive,inactive,inactive,inactive,inactive
Cc1cccc(C)c1NC(=O)/N=C1\CCCN1Cc1ccccc1,inactive,inactive,inactive,inactive,inactive,inactive
CN1CCC/C1=N\C(=O)Nc1ccccc1Cl,Active,Active,Active,Active,Active,Active
CN1CCC/C1=N\C(=O)Nc1ccc(Br)cc1,inactive,inactive,inactive,inactive,,
CN1CCC/C1=N\C(=O)Nc1ccccc1C(F)(F)F,Active,Active,Active,Active,Active,Active
CN1CCCCC/C1=N\C(=O)Nc1ccccc1,inactive,inactive,inactive,inactive,inactive,inactive
CCOc1ccccc1NC(=O)/N=C1\CCCN1C,Active,Active,Active,Active,Active,Active
CN1CCCCC/C1=N\C(=O)Nc1cccc(Cl)c1,inactive,inactive,inactive,inactive,inactive,inactive
CN1CCC/C1=N\C(=O)Nc1ccc(O)cc1,inactive,inactive,inactive,inactive,,
CN1CCC/C1=N\C(=O)Nc1ccc(S(C)(=O)=O)cc1,inactive,inactive,inactive,inactive,,
O=C(/N=C1\CCCN1Cc1ccccc1)Nc1cccc(C(F)(F)F)c1,inactive,inactive,inactive,inactive,inactive,inactive
CN1CCCC/C1=N\C(=O)Nc1ccc(C(F)(F)F)cc1,inactive,inactive,inactive,inactive,inactive,inactive
CC1/C(=N\C(=O)Nc2cccc(Cl)c2)N(C)CC1c1ccccc1 (stereo unspecified),inactive,inactive,inactive,inactive,inactive,inactive
CN1CC(c2ccccc2)C/C1=N\C(=O)Nc1cccc(Cl)c1 (stereo unspecified),inactive,inactive,inactive,inactive,inactive,inactive
CN1CCCCC/C1=N\C(=O)Nc1c(Cl)cccc1Cl,inactive,inactive,inactive,inactive,inactive,inactive

Compound,Activity (Mus musculus [1]),Activity (Mus musculus [2]),Activity (Mus musculus [3]),Activity (Rattus norvegicus),Activity (Mus musculus [4]),Activity (Mus musculus [5])
Cc1cccc(C)c1NC(=O)/N=C1\CC(c2ccccc2)CN1C (stereo unspecified),inactive,inactive,inactive,inactive,inactive,inactive
Cc1cc(C)c(NC(=O)/N=C2\CCCN2C)c(C)c1,Active,,Active,,,
CN1CCC/C1=N\C(=O)Nc1c(Br)cc(Br)cc1Br,Active,,Active,,,
CN1CCC/C1=N\C(=O)Nc1ccc(C(C)(C)C)cc1,inactive,inactive,inactive,inactive,,
CN1CCC/C1=N\C(=O)Nc1cccc([N+](=O)[O-])c1,,,,inactive,,
O=C(/N=C1\CCCN1)Nc1ccccc1,Active,,Active,,,
Cc1ccc(Cl)c(C)c1NC(=O)/N=C1\CCCN1C,Active,,Active,,,
Cc1cccc(C)c1NC(=O)/N=C1\C(C)C(c2ccccc2)CN1C (stereo unspecified),inactive,inactive,inactive,inactive,inactive,inactive
Cc1cccc(C)c1NC(=O)/N=C1\CCCCCN1C,inactive,inactive,inactive,inactive,inactive,inactive
O=C(/N=C1\CCCN1)NC12CC3CC(CC(C3)C1)C2,,,,inactive,,
Cc1cccc(C)c1NC(=O)/N=C1\CCCCCN1,inactive,inactive,inactive,inactive,inactive,inactive
CN1CCC/C1=N\C(=O)Nc1ccc(F)cc1,inactive,inactive,inactive,inactive,,
CN1CCC/C1=N\C(=O)Nc1ccc(OCc2ccccc2)cc1,inactive,inactive,inactive,inactive,,
CC1/C(=N\C(=O)Nc2ccccc2)N(C)CC1c1ccccc1 (stereo unspecified),inactive,inactive,inactive,inactive,inactive,inactive
O=C(/N=C1\CCCN1Cc1ccccc1)Nc1c(Cl)cccc1Cl,inactive,inactive,inactive,inactive,inactive,inactive
O=C(/N=C1\CCCN1)NC1CCCCC1,,,,inactive,,
CN1CCC/C1=N\C(=O)Nc1ccc(N(C)C)cc1,inactive,inactive,inactive,inactive,,
CN1CC(C)(C)C/C1=N\C(=O)Nc1cccc(Cl)c1,inactive,inactive,inactive,inactive,inactive,inactive
O=C1NC(=O)C(c2ccccc2)(c2ccccc2)N1,,Active,,,,
CN1CCC/C1=N\C(=O)Nc1ccc(C(F)(F)F)cc1,,,,inactive,,
COc1ccc(NC(=O)/N=C2\CCCN2C)cc1,inactive,inactive,inactive,inactive,,
CN1CCC/C1=N\C(=O)Nc1cc(C(F)(F)F)cc(C(F)(F)F)c1,,Active,,,,
CCOC(=O)c1ccc(NC(=O)/N=C2\CCCN2C)cc1,inactive,inactive,inactive,inactive,,
CN1CCC/C1=N\C(=O)Nc1ccc(Cl)cc1,inactive,inactive,inactive,inactive,,
CCOc1ccc(NC(=O)/N=C2\CCCN2C)cc1,inactive,inactive,inactive,inactive,,
